Test results published in paper PMC10746280, “Bacterial efflux pump modulators prevent bacterial growth in macrophages and under broth conditions that mimic the host environment” (mBio, 2023).

Key:
E. coli ΔtolC mutant = test: Growth (OD600) of ΔtolC mutant in LPM 5.5; type: cell-based
Excerpt: (§1) LPM 5.5 is chemically defined, contains low phosphate and low magnesium, and is buffered to pH 5.5 ([34], [39][–][41]). […] It was further noted that mutant strains lacking acrAB or tolC grow poorly in LPM 5.5 compared to the corresponding wild type (Fig. 5C through F).
(§2) Fig 5 In LPM pH 5.5, acrAB and tolC are required for growth, and EPM analogs inhibit growth. (A and B) Optical density at 600 nm (OD600) and CFU per milliliter of S. Typhimurium in LPM 5.5 (at pH 5.5) or LPM 7 (at pH 7.0) in the presence of CU032. (C through F) OD600 in LPM 5.5 of (C and E) S. Typhimurium ΔacrAB mutant and wild-type strains, and (D and F) E. coli ΔtolC mutant and wild-type strains with (C, D) CU032 or (E and F) EPM35. Mean and SEM of three biological replicates are shown for A–F. The wild-type and mutant strain controls are the same for C and E and for D and F.

[1] = tested on: Bacillus subtilis expressing mNeongreen-FtsZ; test: Membrane voltage disruption assay (mNeongreen-FtsZ delocalization); type: cell-based; conditions: 150 µM, 15 min, LPM 5.5
Excerpt: We therefore monitored membrane integrity in the presence of EPM analogs by evaluating membrane voltage with mNeongreen-FtsZ ([28][–][30]). The FtsZ protein localizes to the bacterial septum based on membrane potential, and rapid delocalization of fluorescent FtsZ reporters occurs when voltage across the membrane is disrupted ([31], [32]). We monitored mNeongreen-FtsZ localization in a Gram-positive bacterium, Bacillus subtilis, to eliminate the potentially confounding issue of the passage of EPM analogs through the outer membrane at different rates ([24], [33][–][36]).
To determine whether exposure to compound dislodges FtsZ from the cell septum, an overnight culture of Bacillus subtilis grown in LPM at pH 5.5 (LPM 5.5) expressing mNeonGreen-FtsZ (strain DK5092) was exposed to DMSO, CCCP (100 µM) or an EPM analog (150 µM) for 15 or 30 min, as indicated. Bacteria were immobilized on 1% agarose pads made with LPM under a coverslip. To set the threshold value for the FtsZ septal ring, mNeonGreen signal (excitation 488 nm, emission 525 nm) from at least 20 DMSO-treated cells was quantified using a CV1000 confocal microscope with a 100× oil, NA = 1.4 objective. A background-subtracted image was made by subtracting the median intensity from full original images. A signal threshold of ≥400 arbitrary units per pixel was set (Fig. 4B). Then, we manually confirmed that mNeonGreen signal above threshold was at the center of the bacterial rod. We examined 50 cells per sample from at least three biological replicates (≥150 cells per condition). A MATLAB program (https://github.com/Betterton-Lab/FtsZ-Quantification) counted the number of pixels above threshold per cell and averaged this value across all cells for each condition and this value is reported in the graph (Fig. 4C).

[2] = tested on: S. enterica (SL1344 and SA10801); test: Growth/checkerboard in cation-adjusted Mueller Hinton Broth; type: cell-based; conditions: MHB
Method: as §1
Overnight cation-adjusted MHB-grown cultures of SL1344 or SA10801 were diluted in MHB or LPM 5.5 to an optical density at 600 nm (OD600) of 0.01 and distributed into polystyrene 96-well flat-bottom plates. EPM analogs were added at concentrations up to 300 µM, near the limit of solubility. The antibiotics ciprofloxacin, doxycycline, and erythromycin were added up to concentrations of 2 µM, 2 µM, and 8 µM, respectively. The final DMSO concentration was at or below 2% in all wells. Plates were grown at 37°C with shaking for 18 h and OD600 was monitored (BioTek Synergy H1, BioTek Eon). Each experiment was performed with biological triplicate or higher as indicated. Percent growth was determined by normalizing to OD600 reads in wells containing no D66 or antibiotic. Checkerboards in LPM 5.5 medium were performed with culture grown overnight in LB and diluted to an OD600 of 0.01 in LPM 5.5 and compounds/antibiotics were added as previously described. MuSyC analysis was pursued as previously described ([44], [45]). […]

S. Typhimurium = test: Bacterial growth (OD600, CFU/mL) in LPM medium; type: cell-based
Excerpt: as §1, §2
Bacteria were grown in LB at 37°C ([76], [77]), unless otherwise stated. Cation-adjusted MHB was purchased from Sigma-Aldrich (90922). LPM 5.5 medium was made according to the following recipe: 5 mM KCl, 7.5 mM (NH4)2SO4, 0.5 mM K2SO4, 10 mM glucose, 49 µM MgCl2, 337 µM PO4-, 0.05% casamino acids (CAS)-amino acids, 80 mM MES, adjusted to pH to 5.5 with 5 M NaOH, and sterile filtered. Where stated, bacteria were grown with antibiotics: 30 µg/mL streptomycin.

[3] = tested on: S. Typhimurium ΔacrAB mutant; test: Growth (OD600) of ΔacrAB mutant in LPM 5.5; type: cell-based
Excerpt: as §1, §2

E. coli AcrB = molecular target: T1, E. coli AcrB (Escherichia coli, UniProt P31224); parameters: method as in PMID 29879224; conditions: ITC; previously reported; cited from earlier work
T1 construct: 4xHis (C); made in house; host or cells: E. coli BL21-Gold (DE3), plasmid derived from pSPORT1
T1 sequence (P31224 whole entry): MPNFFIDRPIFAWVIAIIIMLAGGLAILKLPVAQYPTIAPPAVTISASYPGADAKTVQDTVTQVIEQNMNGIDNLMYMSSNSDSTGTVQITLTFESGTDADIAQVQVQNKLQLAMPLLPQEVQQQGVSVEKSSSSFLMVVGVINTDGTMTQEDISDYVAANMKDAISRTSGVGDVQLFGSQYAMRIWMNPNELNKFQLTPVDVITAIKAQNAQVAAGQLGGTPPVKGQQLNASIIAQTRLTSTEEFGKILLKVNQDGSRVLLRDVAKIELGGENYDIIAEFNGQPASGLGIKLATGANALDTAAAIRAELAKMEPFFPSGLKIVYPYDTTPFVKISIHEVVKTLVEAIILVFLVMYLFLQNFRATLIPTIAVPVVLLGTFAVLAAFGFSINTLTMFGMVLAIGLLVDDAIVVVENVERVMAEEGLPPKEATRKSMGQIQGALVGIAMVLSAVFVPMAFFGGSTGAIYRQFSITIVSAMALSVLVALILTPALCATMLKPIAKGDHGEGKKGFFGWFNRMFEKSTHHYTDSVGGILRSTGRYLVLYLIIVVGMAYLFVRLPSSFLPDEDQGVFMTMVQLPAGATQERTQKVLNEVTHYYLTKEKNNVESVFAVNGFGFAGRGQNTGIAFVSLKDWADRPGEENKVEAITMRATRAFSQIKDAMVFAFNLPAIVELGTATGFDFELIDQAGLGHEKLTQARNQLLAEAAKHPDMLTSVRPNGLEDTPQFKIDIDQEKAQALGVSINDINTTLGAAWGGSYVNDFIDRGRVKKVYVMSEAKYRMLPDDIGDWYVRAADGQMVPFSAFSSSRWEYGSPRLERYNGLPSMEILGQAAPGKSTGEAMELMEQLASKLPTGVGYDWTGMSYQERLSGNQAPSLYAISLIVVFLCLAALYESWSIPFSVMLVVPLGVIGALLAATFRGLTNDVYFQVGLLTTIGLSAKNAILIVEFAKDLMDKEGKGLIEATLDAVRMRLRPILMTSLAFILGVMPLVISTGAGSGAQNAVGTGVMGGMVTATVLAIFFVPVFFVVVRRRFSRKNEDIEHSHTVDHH

SMILES | growth inhibition of ΔtolC mutant compared to DMSO (E. coli ΔtolC mutant) | effect on mNeongreen-FtsZ ring size / localization [1] | growth inhibition of wild-type bacteria in Mueller Hinton Broth [2] | nature of inhibitory activity (CFU per milliliter) (S. Typhimurium; LPM 5.5) | growth inhibition in LPM 5.5 (S. Typhimurium; pH 5.5) | growth inhibitory activity in LPM at pH 7.0 (S. Typhimurium; pH 7.0) | growth inhibition of ΔacrAB mutant compared to DMSO [3] | KD (E. coli AcrB) | ∆H (E. coli AcrB) | ∆S (E. coli AcrB)
NC1CCN(CC(O)COc2ccc(Cl)c(Cl)c2)C1 (centres unmarked) [CU032] | does not strongly inhibit growth | no significant effect | did not inhibit the growth | bacteriostatic, not bactericidal | prevented bacterial growth | abolished | does not strongly inhibit growth | – | – | –
NC1CCN(CC(O)COc2cccc(C(F)(F)F)c2)CC1 (centres unmarked) [CU232] | – | no significant effect | – | – | – | – | – | – | – | –
OC(COc1ccc(Cl)c(Cl)c1)CN1CCC(Nc2nccc(C(F)(F)F)n2)CC1 (centres unmarked) [EPM35] | does not strongly inhibit growth | did not alter FtsZ localization | – | – | – | – | does not strongly inhibit growth | sub-micromolar range | −7,663 ± 84 cal/mol | 4.2 cal/(mol deg)
